Measurements reported in patent publication US20090269403A1, “ORAL CONTRACEPTIVE DOSAGE FORMS AND METHODS OF MAKING SUCH DOSAGE FORMS” (priority 2008, published 2009).

Experiments:
[1] = Drug release from enteric-coated drospirenone/ethinylestradiol tablets (USP Type II paddle dissolution); assay type: physicochemical; conditions: Example 19 enteric-coated tablets, second test run, 75 rpm, 37° C.
Procedure: The rate at which the tablets release the drospirenone and ethinylestradiol was determined. Each tablet was placed in 0.1 N HCl and stirred for 2 hours. After this time, the pH of each of the mixtures containing the tablets was adjusted to pH 6.8 with phosphate buffer and stirred for 4 hours using a USP Type II paddle apparatus at 75 rpm and 37° C. A second test run gave the results listed below in Table 12. A graph of the drug release profiles for the second test run is depicted in FIG. 4.

[2] = water at various pH values; cited from earlier work
[3] = acidic conditions (such as encountered in the gastric environment); cited from earlier work

**Q.** Which results are given for C[C@]12CCC(=O)C=C1[C@@H]1C[C@@H]1[C@H]1[C@@H]3[C@@H]4C[C@@H]4[C@@]4(CCC(=O)O4)[C@@]3(C)CC[C@@H]12 [Drospirenone, 6β,7β,15β, 16β-dimethylene-3-oxo-17a-pregn-4-ene-21,17-carbolactone]?
**A.** Average % Drug Release (n = 6), 5 min ([1]; 5 min, in 0.1 N HCl): 0.0%; Average % Drug Release (n = 6), 120 min ([1]; 120 min, end of 2 hours in 0.1 N HCl): 0.0%; Average % Drug Release (n = 6), 130 min ([1]; 130 min, 2 hours 0.1 N HCl, then pH 6.8 phosphate buffer): 29.1%; Average % Drug Release (n = 6), 140 min ([1]; 140 min, 2 hours 0.1 N HCl, then pH 6.8 phosphate buffer): 108.4%; Average % Drug Release (n = 6), 150 min ([1]; 150 min, 2 hours 0.1 N HCl, then pH 6.8 phosphate buffer): 105.4%; Average % Drug Release (n = 6), 165 min ([1]; 165 min, 2 hours 0.1 N HCl, then pH 6.8 phosphate buffer): 105.2%; Average % Drug Release (n = 6), 180 min ([1]; 180 min, 2 hours 0.1 N HCl, then pH 6.8 phosphate buffer): 105.0%; Average % Drug Release (n = 6), 240 min ([1]; 240 min, 2 hours 0.1 N HCl, then pH 6.8 phosphate buffer): 103.9%; Average % Drug Release (n = 6), 300 min ([1]; 300 min, 2 hours 0.1 N HCl, then pH 6.8 phosphate buffer): 102.5%; solubility in water [2]: only sparingly soluble in water; stability under acidic conditions [3]: undergoes isomerization to a form that is inactive
